Results as given in patent publication US8487072B2, “Compounds for stimulating P-glycoprotein function and uses thereof” (Angiochem Inc., priority 2006, dated 2013).
Where two headings read alike, the source gives them in different places.

What was measured:
P-gp [1] = assay: Brain uptake of [3H]-Taxol in vivo (P-gp efflux transport at the blood brain barrier); design: species or system mice; conditions: peptide 20 μg/ml; for reduction of [3H]-Taxol in the capillaries and in the parenchyma relative to total brain: [3H]-Taxol perfused 5 minutes; for reduction of Taxol passage in the total brain vs control mice: [3H]-Taxol perfused through right jugular vein for 5 minutes, total brain (FIG. 2)
Procedure: The effect of compounds on P-gp efflux transport activity was investigated in vivo. For this purpose, the brain uptake of [^3H]-Taxol, a specific substrate of P-gp, was measured. [^3H]-Taxol was perfused into the brain through the right jugular vein for 5 minutes in the presence or absence of pepCav or pepPgp at a concentration of 20 μg/ml. Radioactivity of [^3H]-Taxol was analyzed in the total brain, the capillary and the parenchyma.

[2] = tested on: human umbilical vein endothelial cells (HUVEC); assay: HUVEC tube formation on Matrigel (angiogenesis in vitro); assay type: cell-based; conditions: 40 μg/ml, 18 hours (FIG. 4A)
Procedure: The effect of these compounds on angiogenesis was evaluated in vitro using human umbilical vein endothelial cells (HUVEC) tube formation on Matrigel. Following transfections, cells were trypsinized and 2.5×10^4 cells were seeded on Matrigel. After cellular adhesion, the medium was removed and 100 μl fresh medium was added with or without 40 μg/ml of either pepCav or pepPgp. Tube formation was evaluated after 18 hours. After incubation, tubular structures were visualized at 60× magnification using a Nikon TMS-F microscope and Northern Eclipse Software.

MDCK-MDR1 cells = assay: Cell migration of MDCK-MDR1 cells, Transwell filters; assay type: cell-based, canine; conditions: 20 μg/ml, Transwell 8 μm precoated with 0.15% gelatin, 10% serum as chemoattractant (FIGS. 3A, 3B)
Procedure: The effect of both compounds on cell migration, was determined by the migration of MDCK-MDR1 cells using Transwell filters (Costar; 8 μm pore size) precoated with 0.15% gelatin. Briefly, 1×10^5 cells were resuspended in 100 μl of serum-free medium with or without compounds (20 μg/ml). The lower chamber of the Transwell contained 10% serum used as chemoattractant. Cell migration was determined using a Nikon TMS-F microscope and Northern Eclipse Software. As observed in FIGS. 3A and 3B, pepPgp and pepCav inhibited cells migration of MDCK-MDR1 by 30% and 80%, respectively, as compared to the control.

angiogenesis = assay: Matrigel plug assay (angiogenesis in vivo), hemoglobin content; conditions: Matrigel with heparin and bFGF under the skin of mice, plug removed after one week; 100 μg/ml in the method, 40 μg/ml in the result sentence (FIG. 4B)
Procedure: The effect of these compounds on angiogenesis was evaluated in vivo using the Matrigel plug assay. Briefly, Matrigel containing heparin and bFGF was injected under the skin of mice in the presence or absence of 100 μg/ml pepCav and pepPgp. The Matrigel plug was removed after one week. Hemoglobin content in the Matrigel plugs, which corresponds to the vessels formed, was measured.

P-gp [3] = molecular target: P-gp (Homo sapiens, UniProt P08183)
P-gp (Homo sapiens, UniProt P08183), sequence (P08183 whole entry): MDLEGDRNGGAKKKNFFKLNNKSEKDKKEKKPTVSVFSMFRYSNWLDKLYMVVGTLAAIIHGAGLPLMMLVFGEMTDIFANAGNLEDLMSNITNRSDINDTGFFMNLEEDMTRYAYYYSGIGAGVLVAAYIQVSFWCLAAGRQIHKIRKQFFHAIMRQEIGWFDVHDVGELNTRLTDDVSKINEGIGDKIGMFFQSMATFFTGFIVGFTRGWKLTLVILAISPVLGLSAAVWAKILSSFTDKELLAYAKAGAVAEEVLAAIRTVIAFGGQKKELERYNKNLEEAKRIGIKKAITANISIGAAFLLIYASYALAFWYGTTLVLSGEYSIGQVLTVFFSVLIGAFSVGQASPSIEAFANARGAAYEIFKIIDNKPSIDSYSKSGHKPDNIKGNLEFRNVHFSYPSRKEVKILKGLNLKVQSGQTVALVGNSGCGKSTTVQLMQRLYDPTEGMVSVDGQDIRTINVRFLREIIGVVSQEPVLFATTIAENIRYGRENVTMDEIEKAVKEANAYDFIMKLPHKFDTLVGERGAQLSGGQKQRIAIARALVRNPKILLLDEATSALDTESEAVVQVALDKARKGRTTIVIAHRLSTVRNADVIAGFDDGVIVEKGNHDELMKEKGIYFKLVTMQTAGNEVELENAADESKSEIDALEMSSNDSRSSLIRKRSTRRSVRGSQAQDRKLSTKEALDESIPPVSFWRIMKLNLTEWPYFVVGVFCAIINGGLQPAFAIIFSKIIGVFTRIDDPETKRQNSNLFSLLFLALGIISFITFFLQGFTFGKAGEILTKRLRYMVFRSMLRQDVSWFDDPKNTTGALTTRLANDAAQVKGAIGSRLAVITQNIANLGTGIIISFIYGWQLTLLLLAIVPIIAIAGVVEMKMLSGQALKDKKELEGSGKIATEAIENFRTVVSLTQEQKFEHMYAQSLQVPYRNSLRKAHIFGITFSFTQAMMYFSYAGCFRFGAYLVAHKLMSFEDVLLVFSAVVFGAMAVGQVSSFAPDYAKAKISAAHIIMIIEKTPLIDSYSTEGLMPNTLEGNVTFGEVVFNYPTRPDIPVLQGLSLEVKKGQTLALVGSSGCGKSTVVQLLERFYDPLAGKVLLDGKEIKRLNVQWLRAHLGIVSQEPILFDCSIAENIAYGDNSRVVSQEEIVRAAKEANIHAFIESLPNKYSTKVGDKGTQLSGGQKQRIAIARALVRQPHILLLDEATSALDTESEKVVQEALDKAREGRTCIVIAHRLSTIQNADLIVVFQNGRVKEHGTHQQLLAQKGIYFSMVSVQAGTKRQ

| Sequence | reduction of [3H]-Taxol in the capillaries and in the parenchyma relative to total brain (P-gp [1]) | reduction of Taxol passage in the total brain vs control mice (P-gp [1]) [%] | reduction of capillary-like structure formation [2] [%] | inhibition of cell migration of MDCK-MDR1 vs control (MDCK-MDR1 cells) [%] | reduction of hemoglobin content in Matrigel plug vs control (bFGF alone) (angiogenesis) [%] | accumulation of [3H]-vinblastine as a function of time (P-gp [3]; MDCK-MDR1 cells, 20 μg/ml peptide, different times following treatment (FIG. 1A)) | [3H]-vinblastine accumulation with increasing concentrations of compound (P-gp [3]; MDCK-MDR1 cells, increasing concentrations (FIG. 1B)) | [3H]-vinblastine accumulation with increasing concentrations of compound (P-gp [3]) |
| --- | --- | --- | --- | --- | --- | --- | --- | --- |
| DGIWKASFTTFTVTKYWFYR [pepCav] | similar | 50 | 75 | 80 | 25 | decreased as a function of time | reduced | – |
| VFSMFRYSNWLDK [pepPgp] | similar | 30 | 40 | 30 | 40 | – | – | reduced |
